# Data as given in article PMC9879991, “Biomolecular condensates formed by designer minimalistic peptides” (Nature Communications, 2023).
# No end group written: not given here.
# Legend:
# [1] = Turbidity analysis of peptide LLPS at 20 mM at varying pH; format: physicochemical; conditions: mean, Figure S8, for NMR experiment
# Method: 150 μl of 20 mM peptide solutions were prepared in 20 mM Tris buffer. The pH was adjusted to the desired value of 6, 7, 8, 9, 10, and 11 then the turbidity of 35 μl was measured in triplicates at λ = 500 nm using a BioTek H1 synergy plate reader (purchased from Lumitron, Israel).
# Supplementary Figure 7. CD analysis of peptides at 1 mM with and without NaCl.
# Supplementary Figure 8. a. Turbidity analysis of peptide LLPS at a concentration of 20 mM at varying pH values. WGR-10 contains a Pro/Gln substitution. Each point represents an average of n=3, data are presented as mean values +/- SD b. Optical microscopy images of peptides at 20 mM at pH
# 10. Scale bar=50 μm. Source data are provided as a Source Data file. […]
# [2] = Encapsulation efficiency of peptide droplets, rhodamine B payload; format: physicochemical; conditions: C initial 10 µM, 20 mM peptide; for %EE: 20 mM Tris + 0.2 M NaCl pH 8, 15,000 g 10 min, supernatant absorbance 555 nm
# Description: Next, we studied how peptide composition affects the encapsulation efficiency of the droplets by using GFP, rhodamine B, and fluorescein as fluorescent payload model systems (Fig. 4). We analyzed the encapsulation efficiency of the fluorescent payloads by using both confocal microscopy and absorbance measurements of the payloads in the dilute vs. the condensed phase (Fig. 4a–c). […] WGR-1 has the highest EE of fluorescein. In addition to π-π interactions, WGR-1 might form hydrogen bonding with the hydroxyl groups or electrostatic interactions with the deprotonated carboxylic acid of the dye.
# Stock solutions (1 mM) of the fluorescein and rhodamine B dye molecules were prepared in 20 mM Tris buffer. Coacervate solutions of 20 mM peptide were prepared in 20 mM Tris + 0.2 M NaCl at pH 8. From these, a volume of 148.5 µl was mixed with 1.5 µl of dye solution in a 1.5 ml Eppendorf tube and pipetted. After 10 min the samples were centrifuged at 15,000 × g for 10 min. A volume of 120 μl from the supernatant was collected and vortexed and then the absorbance of 35 μl triplicates was measured (at λ = 490 nm for fluorescein and λ = 555 nm for RhB) in a 384 well black plate by Biotek H1 synergy plate reader (purchased from Lumitron, Israel). For GFP, a 7.5 µl of 20 mM Tris buffer to a 7.5 μl GFP aliquot from the purchased stock solution. The 15 µl of GFP solution was added to 135 µl of peptide solution and was mixed in a 1.5 ml Eppendorf tube and pipetted. The concentration of GFP at the supernatant was measured via fluorescence. All experiments were performed in triplicate. The concentration of the supernatant solutions determinate by calibration curves. Imaging was made to 30 μl of uncentrifuged samples. Efficiency of encapsulation (%EE) was calculated using Eq. 2. 2 %EE=CT−Csup/CT
sequence,measurement,setting,value
WGRGRGRGWPGVGY [WGR-1],Turbidity as asorbance at 500 nm,[1]; pH 6,0.0085
same,Turbidity as asorbance at 500 nm,[1]; pH 7,0.019
same,Turbidity as asorbance at 500 nm,[1]; pH 8,0.01867
same,Turbidity as asorbance at 500 nm,[1]; pH 9,0.03567
same,Turbidity as asorbance at 500 nm,[1]; pH 10,1.253
same,Turbidity as asorbance at 500 nm,[1]; pH 11,1.988
same,%EE,"[2]; replicate 1, given as fraction",0.9106
same,%EE,"[2]; replicate 2, given as fraction",0.9029
same,%EE,"[2]; replicate 3, given as fraction",0.8168
same,Encapsulation efficiency (EE),"[2]; 20 mM Tris + 0.2 M NaCl pH 8, supernatant absorbance 555 nm, mean of n=3, in percent",87.6774%
